# What was measured:
# bedstraw = assay: Test B pre/postemergence bedstraw; type: in vivo, Galium aparine; details: Postemergence
# How it was run: (§1)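 Response is a visual 0-to-10 score relative to untreated plants, where 0 means no effect and 10 means complete control, taken twelve to sixteen days after application. Treatments went onto soil at planting and onto foliage of 1- to 4-leaf plants, using a surfactant-containing non-phytotoxic solvent.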
# blackgrass = assay: Test B pre/postemergence blackgrass; type: in vivo, Alopecurus myosuroides
# How it was run: as §1
# surinam grass = assay: Test B pre/postemergence surinam grass; type: in vivo, Brachiaria decumbens
# How it was run: as §1
# cocklebur = assay: Test B pre/postemergence cocklebur; type: in vivo, Xanthium strumarium
# How it was run: as §1
# corn = assay: Test B pre/postemergence corn; type: in vivo, Zea mays
# How it was run: as §1
# crabgrass = assay: Test B pre/postemergence crabgrass; type: in vivo, Digitaria sanguinalis
# How it was run: as §1
# pigweed = assay: Test B pre/postemergence pigweed; type: in vivo, Amaranthus retroflexus
# How it was run: as §1
# rape = assay: Test B pre/postemergence rape; type: in vivo, Brassica napus
# How it was run: as §1
# soybean = assay: Test B pre/postemergence soybean; type: in vivo, Glycine max
# How it was run: as §1
# sugar beet = assay: Test B pre/postemergence sugar beet; type: in vivo, Beta vulgaris
# How it was run: as §1
# velvetleaf = assay: Test B pre/postemergence velvetleaf; type: in vivo, Abutilon theophrasti
# How it was run: as §1
# wheat = assay: Test B pre/postemergence wheat; type: in vivo, Triticum aestivum
# How it was run: as §1
# wild oat = assay: Test B pre/postemergence wild oat; type: in vivo, Avena fatua
# How it was run: as §1
# purple nutsedge = assay: Test B pre/postemergence purple nutsedge; type: in vivo, Cyperus rotundus
# How it was run: as §1
# smallflower flatsedge = assay: Test B flood test smallflower flatsedge; type: in vivo, Cyperus difformis
# How it was run: (§2)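 Each value is a visual injury score relative to controls, with 10 meaning complete control and 0 no effect. Evaluation took place twelve to sixteen days after the 2-leaf-stage plants were treated and kept in the greenhouse.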
# bamyardgrass = assay: Test B flood test barnyardgrass; type: in vivo, Echinochloa crus-galli
# How it was run: as §2
# [1] = Postemergence, Rate 62 g/ha, scale 0 to 10, 0 is no effect, 10 is complete control
# [2] = Postemergence, Rate 125 g/ha, scale of 0 to 10 where 0 is no effect and 10 is complete control
# [3] = Postemergence, Rate 250 g/ha, scale of 0 to 10, 0 is no effect, 10 is complete control
# [4] = Preemergence, Rate 62 g/ha, scale of 0 to 10 where 0 is no effect and 10 is complete control
# [5] = Preemergence, Rate 125 g/ha, scale of 0 to 10 where 0 is no effect and 10 is complete control
# [6] = Preemergence, Rate 250 g/ha, scale 0 to 10 (0 no effect, 10 complete control)
# [7] = Preemergence, Rate 500 g/ha, scale of 0 to 10 where 0 is no effect and 10 is complete control
# [8] = Rate 500 g/ha, Postemergence, scale 0 to 10, 0 is no effect, 10 is complete control
# [9] = Rate 62 g/ha, flood test species, Pre-emergence, visual evaluation after twelve to sixteen days
# [10] = Rate 125 g/ha, under heading Pre-emergence, flood test species, visual evaluation after twelve to sixteen days
# [11] = Rate 250 g/ha, Pre-emergence (flood test species), scale 0 to 10, 0 is no effect, 10 is complete control
# [12] = Rate 500 g/ha, Pre-emergence section of Table B, 0 to 10 scale (0 no effect, 10 complete control)
smiles,measurement,setting,value
CC(C)N(C(=O)n1oc(=O)n(CCC(=O)N(C)C)c1=O)c1ccccc1 [Compound 671],Bedstraw plant response rating,"bedstraw; Rate 125 g/ha, scale of 0 to 10 where 0 is no effect and 10 is complete control",0
same,Bedstraw plant response rating,"bedstraw; Rate 250 g/ha, scale of 0 to 10, 0 is no effect, 10 is complete control",0
same,Bedstraw plant response rating,"bedstraw; Rate 500 g/ha, scale 0 to 10, 0 is no effect, 10 is complete control",0
same,"Plant response rating, Blackgrass",blackgrass; [1],0
same,Blackgrass plant response rating,blackgrass; [2],6
same,Blackgrass plant response rating,blackgrass; [3],8
same,Blackgrass plant response rating,blackgrass; [4],5
same,"Plant response rating, Blackgrass",blackgrass; [5],7
same,"Plant response rating, Blackgrass",blackgrass; [6],8
same,"Plant response rating, Blackgrass",blackgrass; [7],10
same,Blackgrass plant response rating,blackgrass; [8],8
same,"Plant response rating, B. signalgrass",surinam grass; [1],0
same,"Plant response rating, B. signalgrass",surinam grass; [2],1
same,B. signalgrass plant response rating,surinam grass; [3],6
same,B. signalgrass plant response rating,surinam grass; [4],4
same,"Plant response rating, B. signalgrass",surinam grass; [5],6
same,"Plant response rating, B. signalgrass",surinam grass; [6],7
same,"Plant response rating, B. signalgrass",surinam grass; [7],9
same,B. signalgrass plant response rating,surinam grass; [8],8
same,"Plant response rating, Cocklebur",cocklebur; [1],0
same,Cocklebur plant response rating,cocklebur; [2],0
same,Cocklebur plant response rating,cocklebur; [3],0
same,Cocklebur plant response rating,cocklebur; [4],0
same,"Plant response rating, Cocklebur",cocklebur; [5],0
same,"Plant response rating, Cocklebur",cocklebur; [6],0
same,"Plant response rating, Cocklebur",cocklebur; [7],1
same,Cocklebur plant response rating,cocklebur; [8],1
same,"Plant response rating, Corn",corn; [1],0
same,Corn plant response rating,corn; [2],0
same,Corn plant response rating,corn; [3],0
same,Corn plant response rating,corn; [4],0
same,"Plant response rating, Corn",corn; [5],0
same,"Plant response rating, Corn",corn; [6],3
same,"Plant response rating, Corn",corn; [7],9
same,Corn plant response rating,corn; [8],5
same,"Plant response rating, Crabgrass",crabgrass; [1],1
same,Crabgrass plant response rating,crabgrass; [2],1
same,Crabgrass plant response rating,crabgrass; [3],8
same,Crabgrass plant response rating,crabgrass; [4],4
same,"Plant response rating, Crabgrass",crabgrass; [5],8
same,"Plant response rating, Crabgrass",crabgrass; [6],8
same,"Plant response rating, Crabgrass",crabgrass; [7],9
same,Crabgrass plant response rating,crabgrass; [8],9
same,"Plant response rating, Redroot pigweed",pigweed; [1],0
same,Redroot pigweed plant response rating,pigweed; [2],1
same,Redroot pigweed plant response rating,pigweed; [4],0
same,"Plant response rating, Redroot pigweed",pigweed; [5],2
same,"Plant response rating, Redroot pigweed",pigweed; [6],10
same,"Plant response rating, Redroot pigweed",pigweed; [7],10
same,Redroot pigweed plant response rating,pigweed; [8],5
same,"Plant response rating, Rape",rape; [1],0
same,Rape plant response rating,rape; [2],0
same,Rape plant response rating,rape; [4],0
same,"Plant response rating, Rape",rape; [5],0
same,"Plant response rating, Rape",rape; [6],0
same,"Plant response rating, Rape",rape; [7],8
same,Rape plant response rating,rape; [8],2
same,"Plant response rating, Soybean",soybean; [1],2
same,Soybean plant response rating,soybean; [2],2
same,Soybean plant response rating,soybean; [4],0
same,"Plant response rating, Soybean",soybean; [5],0
same,"Plant response rating, Soybean",soybean; [6],0
same,"Plant response rating, Soybean",soybean; [7],3
same,Soybean plant response rating,soybean; [8],4
same,"Plant response rating, Sugarbeets",sugar beet; [1],0
same,Sugarbeets plant response rating,sugar beet; [2],0
same,Sugarbeets plant response rating,sugar beet; [4],1
same,"Plant response rating, Sugarbeets",sugar beet; [5],9
same,"Plant response rating, Sugarbeets",sugar beet; [6],9
same,"Plant response rating, Sugarbeets",sugar beet; [7],9
same,Sugarbeets plant response rating,sugar beet; [8],3
same,"Plant response rating, Velvetleaf",velvetleaf; [1],0
same,Velvetleaf plant response rating,velvetleaf; [2],0
same,Velvetleaf plant response rating,velvetleaf; [4],2
same,"Plant response rating, Velvetleaf",velvetleaf; [5],7
same,"Plant response rating, Velvetleaf",velvetleaf; [6],7
same,"Plant response rating, Velvetleaf",velvetleaf; [7],9
same,Velvetleaf plant response rating,velvetleaf; [8],3
same,"Plant response rating, Wheat",wheat; [1],0
same,Wheat plant response rating,wheat; [2],0
same,Wheat plant response rating,wheat; [4],0
same,"Plant response rating, Wheat",wheat; [5],0
same,"Plant response rating, Wheat",wheat; [6],3
same,"Plant response rating, Wheat",wheat; [7],8
same,Wheat plant response rating,wheat; [8],6
same,"Plant response rating, Wild oats",wild oat; [1],0
same,Wild oats plant response rating,wild oat; [2],0
same,Wild oats plant response rating,wild oat; [4],0
same,"Plant response rating, Wild oats",wild oat; [5],0
same,"Plant response rating, Wild oats",wild oat; [6],7
same,"Plant response rating, Wild oats",wild oat; [7],5
same,Wild oats plant response rating,wild oat; [8],0
same,"Plant response rating, Nutsedge",purple nutsedge; [1],0
same,Nutsedge plant response rating,purple nutsedge; [2],0
same,Nutsedge plant response rating,purple nutsedge; [4],0
same,"Plant response rating, Nutsedge",purple nutsedge; [5],2
same,"Plant response rating, Nutsedge",purple nutsedge; [6],6
same,"Plant response rating, Nutsedge",purple nutsedge; [7],6
same,Nutsedge plant response rating,purple nutsedge; [8],0
same,"Plant response rating, S. Flatsedge (0 to 10 scale, 0 is no effect, 10 is complete control)",smallflower flatsedge; [9],0
same,"S. Flatsedge plant response rating (0 to 10 scale, 0 is no effect, 10 is complete control)",smallflower flatsedge; [10],0
same,S. Flatsedge plant response rating,smallflower flatsedge; [11],0
same,S. Flatsedge plant response rating,smallflower flatsedge; [12],0
same,"Plant response rating, Barnyardgrass (0 to 10 scale, 0 is no effect, 10 is complete control)",bamyardgrass; [9],0
same,"Barnyardgrass plant response rating (0 to 10 scale, 0 is no effect, 10 is complete control)",bamyardgrass; [10],0
same,Barnyardgrass plant response rating,bamyardgrass; [11],0
same,Barnyardgrass plant response rating,bamyardgrass; [12],0
